These results are taken from a melting point compilation (Tetko et al.; mined from patent text by program, amines drawn as free bases though some values may be those of a salt).

On to `Nc1ccc(OC(F)(F)C(F)F)cc1[N+](=O)[O-]`, for which the melting point (commonly the temperature, or range, at which the solid turns liquid) was in the range of 83.9 to 84.4 °C.

The compound `CC1(C(=O)c2c[nH]c3ncc(Br)nc23)CCCCC1` returned a melting point of 198 to 199 °C.

In turn, `O=C1c2ccccc2C(O)N1CCCCCO[N+](=O)[O-]` (stereo not drawn) came in with a melting point of 70 to 72 °C.

`CS(=O)(=O)CCNC(=O)c1cccc(-c2ccc3c(c2)C(Oc2ccc(Cl)cc2Cl)CC3)c1` (stereo not drawn) showed a melting point of 140 to 143 °C.

`COc1ccc2sc(C(N)=O)c(Sc3ccccc3)c2c1`: the melting point fell in the range of 194 to 196 °C.

As to `NC(=O)N1CCC(c2nn(-c3ccc(C(F)(F)F)cc3)c3cc(F)ccc23)CC1`, the melting point lay within 148 to 150 °C.

Compound `CN1CCN(c2cc(Cl)cc3c2c(=O)n(Cc2ccccc2O)c(=O)n3Cc2ccccc2)CC1` yielded a melting point of 130 to 132 °C.

Turning to `Cc1nccc2c3ccc(OCc4ccccc4)cc3n(Cc3ccccc3)c12`, the melting point came to 156 °C.

Consider `CCC(Cl)c1ccc(CCNS(=O)(=O)c2ccc(Cl)cc2)cc1` (stereo not drawn), for which the melting point lay in the range of 90 to 91 °C.

The compound `O=[N+]([O-])c1cc(-c2cn3c(n2)sc2ccccc23)cc(O)c1O` displayed a melting point of 303 to 305 °C.

With `CC(C)(C)c1ccnc(C(=O)c2[nH]c3ccc(Cl)cc3c2CC(=O)O)c1`, the melting point lay in the range of 209 to 211 °C.

For the compound `CCOc1ccc(C(=O)O)c(Cl)n1`, the melting point is 185 to 188 °C.

Take `CC1N=C(c2ccccc2)c2cc(Cl)ccc2NC1=S` (stereo not drawn): the melting point came to 250 °C.

In turn, `CCC[C@H]1CC[C@H](c2ncc(C(N)=O)cn2)CC1` showed a melting point of 234 to 235 °C.

For the compound `Cc1ccc(CN2C(=NCCCn3ccnc3)c3cccc4cccc2c34)cc1`, the melting point was 94 to 95 °C.

Consider `O=C(O)[C@@H]1CCc2cc(F)ccc2O1`, for which the melting point came out at 99.7 °C.

`O=CN(O)C(CCCO)CS(=O)(=O)c1ccccc1Oc1ccc(Cl)cc1` (stereo not drawn) gave a melting point of 127 to 129 °C.

Regarding `CCC(O)(c1ccc(O)cc1O)c1ccccc1OC` (stereo not drawn), the melting point lay in the range of 141 to 142 °C.

Compound `O=C1NCC[C@@H]1NCc1ccc(OCc2cccc(F)c2)cc1` registered a melting point of 140 to 144 °C.

For `COc1ccc(Cn2c(=O)nc(C3CC3)c3cc(-c4cccc(Cl)c4)ccc32)cc1`, the melting point is 173 to 174 °C.

For the compound `O=C(Nc1ccccc1)N1CC2CC(CN(Cc3ccc(Cl)cc3)C2)C1`, the melting point is 187 °C.

In turn, `CCCOC(=N)c1sc2ccccc2c1O` had a melting point of 185 °C.

On to `C=C1N(S(=O)(=O)c2ccc(C)cc2)C(=O)OC12CCN(Cc1ccccc1)CC2`, for which the melting point is 157 to 158 °C.

`Nc1ncc(-c2cccc(OCc3ccccc3)c2)cc1C(=O)NC1CC1` gave a melting point of 177 to 178 °C.

The compound `Nc1nc(=O)n(C2OC(CO)CC2F)cc1F` (stereo not drawn) displayed a melting point of 209 to 210 °C.

Compound `CC(C)(C)NC(=NC#N)Nc1cc(F)cc(Cl)c1` yielded a melting point of 156 to 157 °C.

For the compound `Cc1ccc(OC(C)C)c(-c2cc(=O)c3cc(C(=O)O)ccc3o2)c1`, the melting point is 209 to 210 °C.

`COc1ccccc1N1CCN(CCCNC(=O)c2cccc3c(=O)c(C)c(C4(C)CCCCC4)oc23)CC1` came in with a melting point of 120 to 124 °C.

Consider `COC(=O)C(C(=O)OC)=C(C)N`, for which the melting point is 81 to 82 °C.

Regarding `COC(=O)C(Cc1cccc(OCC(=O)O)c1)c1nc(-c2ccccc2)c(-c2ccccc2)o1` (stereo not drawn), the melting point lay in the range of 122 to 127 °C.

Regarding `COC(=O)CCCC#Cc1cc(Cl)ccc1NS(=O)(=O)c1ccc2nc(NC(C)=O)sc2c1`, the melting point was in the range of 138 to 140 °C.

Compound `Cc1c(C=O)cc(-c2ccc(S(C)(=O)=O)cc2)n1-c1ccc(F)cc1` showed a melting point of 136 to 138 °C.

Consider `O[C@@H]1CN(Cc2ccccc2)C[C@H]1Oc1ccc(Cl)cc1` (relative stereo), for which the melting point was in the range of 101 to 104 °C.

For the compound `CC(=O)Oc1cccc2c1CC(=O)N2C`, the melting point is 109 to 111 °C.

In turn, `COC(C)Cc1nc2c(N)nc3ccccc3c2n1CC(C)C` (stereo not drawn) had a melting point of 139 to 141 °C.

Take `CC1(C)OC(c2ccc(S(C)(=O)=O)cc2)=C(c2ccc(F)c(Cl)c2)C1=O`: the melting point is 162 to 164 °C.

Regarding `CCOC(=O)C(=NOCC(N)=O)c1csc(NC(c2ccccc2)(c2ccccc2)c2ccccc2)n1`, the melting point turned out to be 180 °C.

The compound `O=C1Cc2ccccc2Oc2ccccc2C1` returned a melting point of 86 °C.

Turning to `CNCCCOc1ccc(-c2nnc(CSCCOc3ccccc3)o2)cc1`, the melting point was 40 to 44 °C.

`CCOC(=O)Cc1c(C)n(Cc2ccccc2)c2ccc(-c3ccccc3)cc12` yielded a melting point of 116 to 119 °C.

Regarding `CC(C)(C)OC(=O)CN1C(=O)[C@H](N)CCc2ccccc21`, the melting point fell in the range of 113 to 115 °C.

Compound `C/C(NC1CCCCC1)=C(\C#N)C(N)=S` registered a melting point of 142 to 144 °C.

Regarding `CCOC(=O)c1[nH]cc2c1NC1=C(C(=O)CCC1)C2c1ccc(Sc2nc3cc(OC)ccc3[nH]2)o1` (stereo not drawn), the melting point turned out to be 140 °C.

With `CC(=O)c1nc(-c2ccccc2)oc1C`, the melting point fell in the range of 74 to 76 °C.

`Cc1cc(C)c(Nc2nc(C)ccc2S(=O)(=O)c2ccc(OCc3c(C)cccc3C)cc2)c(C)c1` gave a melting point of 136 to 138 °C.

For the compound `Cc1ccc(C(F)C(F)(F)S(=O)(=O)c2ccccc2)cc1` (stereo not drawn), the melting point is 80 to 82 °C.

`Cc1nnc(-c2ccc3occ(-c4ccc5c(c4)C(C)(C)CS5=O)c3c2)o1` (stereo not drawn) showed a melting point of 179 to 180 °C.

Take `C=CCN(CC=C)c1nc(NC(=O)C=C)n2oc(=O)nc2n1`: the melting point fell in the range of 157 to 161 °C.

The compound `CC(C)(C)N1CCN(Cc2ccc([N+](=O)[O-])cc2)S1(=O)=O` returned a melting point of 113 °C.

Turning to `CCC1(O)c2cc3n(c(=O)c2COC1O)Cc1cc2ccccc2nc1-3` (stereo not drawn), the melting point turned out to be 280 °C.

As for `NC(CC(=O)O)C1CC=CCC1` (stereo not drawn), the melting point was 208 to 210 °C.

For `CC1(C)CCC(C)(C)c2cc(NC(=O)c3ccc(OCCN4CCOCC4)cc3)ccc21`, the melting point was in the range of 130 to 132 °C.

For the compound `O=C(CCC(=O)N1CCC(c2ccc(Cl)cc2)CC1)c1ccc2c(c1)CN(Cc1ccccc1)CC2`, the melting point lay in the range of 102 to 103 °C.

Consider `CN(C)C(=O)CCSC(SCCC(=O)O)c1cccc(C=Cc2ccc3ccc(Cl)cc3n2)c1` (stereo not drawn), for which the melting point lay within 153 to 155 °C.

In turn, `COC(=O)c1[nH]c(C)c(Cc2ccccc2)c1N` gave a melting point of 143 to 144 °C.

Compound `Cc1ccc(C(=O)NC(C)(C)C)cn1` returned a melting point of 104 to 105 °C.

Regarding `CCOc1ccc2c(=S)cc[nH]c2c1`, the melting point lay in the range of 171 to 174 °C.

`CN(c1ccccc1)S(=O)(=O)c1ccc(C#CC(C)(O)C(F)(F)F)cc1` (stereo not drawn) displayed a melting point of 116 to 118 °C.

Take `O=C(c1sc(Nc2ccccc2)c2c1CCc1cnoc1-2)N1CCOCC1`: the melting point lay in the range of 177 to 178 °C.

For the compound `O=[N+]([O-])c1ccc(OCCCl)cc1`, the melting point amounted to 60 °C.

Regarding `Cc1ccc(C(=O)c2ccc(OCC(=O)O)c(Cl)c2Cl)cc1`, the melting point is 176 to 177 °C.

As to `COC(=O)CCc1c(C=O)ccc2c1CCC(NS(=O)(=O)c1ccc(Cl)cc1)C2` (stereo not drawn), the melting point was 110 °C.

`COc1cc([N+](=O)[O-])c2nc(N)ccc2c1` returned a melting point of 195 to 197 °C.

As to `C=CCSc1nc2ccc(OCC)cc2[nH]1`, the melting point lay within 147 to 149 °C.

For the compound `CN1CCC(N(CCN2CCCC2)C(=O)c2ccc(Nc3nccc(Nc4ccc(C(F)(F)F)cc4)n3)cc2)CC1`, the melting point fell in the range of 115 to 120 °C.

Take `Cc1nc(-n2cnn(CC3CC3(F)F)c2=O)sc1C(N)=O` (stereo not drawn): the melting point lay in the range of 273 to 275 °C.

For the compound `O=C(CCOCc1ccc2ccccc2c1)c1ccccc1`, the melting point was 56 to 57 °C.

As to `COc1ccc2c(c1)Nc1cccc(SC)c1S2`, the melting point fell in the range of 152 to 154 °C.

As to `Clc1ccc(CCN2CCC3(CC2)Oc2ccccc2Cn2cccc23)cc1`, the melting point lay within 116 to 118 °C.

Compound `Fc1ccccc1-c1nc(N2CCNCC2)nc2ccccc12` returned a melting point of 132 to 133 °C.

Compound `COCOc1cc(OC)c(OC)cc1-c1c(C(=O)OC)nnc(C(=O)OC)c1-c1ccc(OC)c(OC)c1` gave a melting point of 131 to 133 °C.

`CCc1cccc(Nc2ncnc3cc(OCc4ccccc4)c(OCCOC)cc23)c1` yielded a melting point of 156 to 157 °C.

`COc1ccc2cc([C@H](C)C(=O)OCCSCCO)ccc2c1` showed a melting point of 58 to 61 °C.

Regarding `Cn1c(=O)n(-c2cc(Cl)cc(Cl)c2)c(=O)n1C`, the melting point fell in the range of 209 to 211 °C.

The compound `COc1c(-c2ccc(O)c(O)c2)oc2cc(O)c(CC=C(C)CCC=C(C)C)c(O)c2c1=O` registered a melting point of 98 to 99 °C.

Consider `COCCO[C@@H]1c2ccc3[nH]c(C)nc3c2O[C@H](c2ccccc2)[C@H]1O`, for which the melting point amounted to 117 °C.

Turning to `CN(Cc1ccco1)Cn1cc(C#N)c(-c2cccc(Cl)c2Cl)c1`, the melting point fell in the range of 79 to 80 °C.

Consider `O=C1NC(=O)c2c1cc1ccc3c(c1c2-c1ccc(OCc2ccccc2)cc1)OCO3`, for which the melting point was 265 to 267 °C.

Regarding `CC1(C)Oc2ccc(C(=O)CO)cc2[C@H](NC(=O)c2cc(F)cc(F)c2)[C@H]1O`, the melting point was 179 °C.

As to `Cc1cc(CN2CCC(N(C)S(=O)(=O)c3ccc(Nc4nccc(Nc5ccc(F)c(C)c5)n4)cc3)CC2)no1`, the melting point lay within 172 to 173 °C.

Turning to `CC(C)C(NC(=O)OCCN1CCCC1)C(=O)NC(Cc1ccccc1)C(O)C(Cc1ccccc1)NC(=O)C(NC(=O)OCc1ccccc1)C(C)C` (stereo not drawn), the melting point was in the range of 143 to 146 °C.

Regarding `OC1CSC(Oc2cncc(-c3ccc(F)cn3)c2)C(O)C1O` (stereo not drawn), the melting point lay in the range of 166 to 190 °C.

In turn, `CCOC(=O)c1ncn2c1c(=O)n(CC)c1ncccc12` showed a melting point of 216 to 217 °C.

`COc1cc2c(cc1Nc1ncc(Cl)c(N[C@H]3[C@@H](C(N)=O)[C@@H]4C=C[C@H]3C4)n1)CCN(CCS(C)(=O)=O)CC2` returned a melting point of 132 to 146 °C.

`CCOC(=O)c1cccc2nc(C)n(Cc3ccc(-c4ccccc4-c4nnn[nH]4)cc3)c12` yielded a melting point of 205 to 206 °C.

Take `Cc1ccc(-n2cc(-c3cccn4nc(Nc5ccc(C6CCNCC6)cc5)nc34)cn2)cc1`: the melting point lay within 216 to 218 °C.

For the compound `COc1cc(C)c(C(=O)c2c(Cl)cccc2Cl)cc1[N+](=O)[O-]`, the melting point was in the range of 156 to 160 °C.

As for `COC(=O)c1nc2nc(C)c(C)c(S)n2n1`, the melting point fell in the range of 206 to 207 °C.
